This is an account of results in patent US20090203737A1, “Pyrrole Derivatives as Positive Allosteric Modulators of Metabotropic Receptors” (priority 2005, published 2009).

In series [1] the target is T1, rat mGluR5 receptor (Rattus norvegicus, UniProt P31424).
T1 construct: expressed in transfected cells
Briefly: mGluR5 assay on HEK-expressing rat mGluR5 (fluorescent cell based Ca2+ mobilization assay). Particulars: for EC50: HEK-293 cells stably expressing rat mGluR5, no co-addition of glutamate, mean of at least three independent experiments in duplicate, read-out: Ca++ Flux (mean EC50); for activation of rat mGluR5 receptors: HEK-rat mGluR5 cell line, without co-addition of glutamate or mGluR5 agonist. How it is done: Positive functional expression of HEK-293 cells stably expressing rat mGluR5 receptor was determined by measuring intracellular Ca^2+ changes using a Fluorometric Imaging Plate Reader (FLIPR, Molecular Devices, Sunnyvale, Calif.) in response to glutamate or selective known mGluR5 agonists and antagonists. Rat mGluR5 RT-PCR products in HEK-293 cells were sequenced and found 100% identical to rat mGluR5 Genbank reference sequence (NM_017012). HEK-293 cells expressing rmGluR5 were maintained in media containing DMEM, dialyzed Fetal Bovine Serum (10%), Glutamax™ (2 mM), Penicillin (100 units/ml), Streptomycin (100 μg/ml), Geneticin (100 μg/ml) and Hygromycin-B (40 μg/ml) at 37° C./5% CO2.
After one day of incubation, cells were washed with assay buffer containing: 142 mM NaCl, 6 mM KCl, 1 mM […], 1 mM CaCl2, 20 mM HEPES, 1 g/L glucose, 0.125 mM sulfinpyrazone, pH 7.4. After 60 min of loading with 4 uM Fluo-4 (TefLabs, Austin, Tex.), the cells were washed three times with 50 μl of PBS Buffer and resuspended in 45 μl of assay Buffer. The plates were then transferred to a Fluorometric Imaging Plate Reader (FLIPR, Molecular Devices, Sunnyvale, Calif.) for the assessment of intracellular calcium flux. After monitoring the baseline fluorescence for 10 seconds, increasing concentrations of representative compound (from 0.01 to 60 μM) of the present invention diluted in Assay Buffer (15 μl of 4× dilutions) was added to the cell. The final DMSO concentration in the assay was 0.3%. In each experiment, fluorescence was then monitored as a function of time for 3 minutes and the data analyzed using Microsoft Excel and GraphPad Prism. Each data point was also measured two times.
Under these experimental conditions, this HEK-rat mGluR5 cell line is able to directly detect positive allosteric modulators without the need of co-addition of glutamate or mGluR5 agonist.
The concentration-response curves of representative compounds of the present invention were generated using the Prism GraphPad software (Graph Pad Inc, San Diego, USA). The curves were fitted to a four-parameter logistic equation:
(Y=Bottom+(Top−Bottom)/(1+10̂((LogEC50−X)*Hill Slope)
allowing determination of EC50 values.
The Table 1 below represents the mean EC50 obtained from at least three independent experiments of selected molecules performed in duplicate.
A general note: Calcium assays in cells follow changes in intracellular calcium, usually with a dye or a luminescent sensor.

The target in series [2] is T2, mGluR5 (Rattus norvegicus, UniProt P31424).
T2 construct: positive allosteric modulators of mGluR5 receptors in native preparations; endogenous in cells; host or cells: primary cortical astrocytes from Sprague-Dawley rat embryos (E16-19)
T2 sequence (P31424 21-1203): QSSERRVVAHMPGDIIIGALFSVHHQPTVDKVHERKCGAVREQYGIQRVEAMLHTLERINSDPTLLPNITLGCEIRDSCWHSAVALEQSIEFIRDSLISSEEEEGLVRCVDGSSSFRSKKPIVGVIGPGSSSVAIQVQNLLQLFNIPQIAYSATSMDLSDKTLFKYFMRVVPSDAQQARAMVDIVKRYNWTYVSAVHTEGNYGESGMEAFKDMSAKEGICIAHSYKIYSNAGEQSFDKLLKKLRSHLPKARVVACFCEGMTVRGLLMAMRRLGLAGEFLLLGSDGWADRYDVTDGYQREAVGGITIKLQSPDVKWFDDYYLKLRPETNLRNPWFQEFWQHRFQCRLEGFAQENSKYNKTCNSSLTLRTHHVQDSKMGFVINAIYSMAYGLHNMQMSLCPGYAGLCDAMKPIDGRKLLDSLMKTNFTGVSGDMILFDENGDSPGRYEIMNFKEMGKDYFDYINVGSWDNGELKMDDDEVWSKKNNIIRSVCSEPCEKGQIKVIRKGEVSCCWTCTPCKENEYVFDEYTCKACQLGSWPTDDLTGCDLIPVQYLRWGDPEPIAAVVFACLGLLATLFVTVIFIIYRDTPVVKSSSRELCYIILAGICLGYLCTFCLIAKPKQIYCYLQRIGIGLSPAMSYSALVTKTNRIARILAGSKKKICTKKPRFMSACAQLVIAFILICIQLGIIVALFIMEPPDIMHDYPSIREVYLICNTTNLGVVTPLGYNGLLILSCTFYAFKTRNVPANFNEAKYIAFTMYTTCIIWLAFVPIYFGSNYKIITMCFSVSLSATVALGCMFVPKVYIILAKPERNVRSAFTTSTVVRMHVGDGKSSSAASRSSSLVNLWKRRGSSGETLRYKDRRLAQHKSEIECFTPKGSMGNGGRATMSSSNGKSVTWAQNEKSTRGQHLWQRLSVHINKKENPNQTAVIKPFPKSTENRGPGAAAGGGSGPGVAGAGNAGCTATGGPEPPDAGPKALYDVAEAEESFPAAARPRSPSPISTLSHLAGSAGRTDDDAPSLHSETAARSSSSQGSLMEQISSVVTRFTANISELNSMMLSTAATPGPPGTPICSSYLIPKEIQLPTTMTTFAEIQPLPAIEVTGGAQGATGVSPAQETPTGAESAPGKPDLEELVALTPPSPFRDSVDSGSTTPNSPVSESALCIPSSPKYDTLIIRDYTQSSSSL
Briefly: mGluR5 binding assay ([3H]-MPEP, rat brain membranes). The note with it: 3 nM [3H]-MPEP, 1 h at 4° C. The source says: Activity of compounds of the invention was examined following a radioligand binding technique using whole rat brain and tritiated 2-methyl-6-(phenylethynyl)-pyridine ([^3H]-MPEP) as a ligand following similar methods than those described in Gasparini et al. (2002) Bioorg. Med. Chem. Lett. 12:407-409 and in Anderson et al. (2002) J. Pharmacol. Exp. Ther. 303 (3) 1044-1051.
Cortices were dissected out from brains of 200-300g Sprague-Dawley rats (Charles River Laboratories, L'Arbresle, France). Tissues were homogenized in 10 volumes (vol/wt) of ice-cold 50 mM HEPES-NaOH (pH 7.4) using a Polytron disrupter (Kinematica AG, Luzern, Switzerland) and centrifuged for 30 min at 40,000 g. (4° C.). […] Protein concentration was determined by the Bradford method (Bio-Rad protein assay, Reinach, Switzerland) with bovine serum albumin as standard.
Membranes were thawed and resuspended in binding buffer containing 20 mM HEPES-NaOH, 3 mM MgCl2, 3 mM CaCl2, 100 mM NaCl, pH 7.4. […] Radioactivity was determined by liquid scintillation spectrometry using a 96-well plate reader (TopCount, Perkin-Elmer, Downers Grove, USA).
The inhibition curves were generated using the Prism GraphPad program (Graph Pad Software Inc, San Diego, USA). […] The mean of IC50 obtained from at least three independent experiments of selected molecules performed in duplicate were calculated.

Series [3] deals with T2, mGluR5. Particulars: Liu et al (2006), Zhang et al (2005); cited from earlier work.

T1 sequence (P31424 21-1171 isoform P31424-2 limits assumed): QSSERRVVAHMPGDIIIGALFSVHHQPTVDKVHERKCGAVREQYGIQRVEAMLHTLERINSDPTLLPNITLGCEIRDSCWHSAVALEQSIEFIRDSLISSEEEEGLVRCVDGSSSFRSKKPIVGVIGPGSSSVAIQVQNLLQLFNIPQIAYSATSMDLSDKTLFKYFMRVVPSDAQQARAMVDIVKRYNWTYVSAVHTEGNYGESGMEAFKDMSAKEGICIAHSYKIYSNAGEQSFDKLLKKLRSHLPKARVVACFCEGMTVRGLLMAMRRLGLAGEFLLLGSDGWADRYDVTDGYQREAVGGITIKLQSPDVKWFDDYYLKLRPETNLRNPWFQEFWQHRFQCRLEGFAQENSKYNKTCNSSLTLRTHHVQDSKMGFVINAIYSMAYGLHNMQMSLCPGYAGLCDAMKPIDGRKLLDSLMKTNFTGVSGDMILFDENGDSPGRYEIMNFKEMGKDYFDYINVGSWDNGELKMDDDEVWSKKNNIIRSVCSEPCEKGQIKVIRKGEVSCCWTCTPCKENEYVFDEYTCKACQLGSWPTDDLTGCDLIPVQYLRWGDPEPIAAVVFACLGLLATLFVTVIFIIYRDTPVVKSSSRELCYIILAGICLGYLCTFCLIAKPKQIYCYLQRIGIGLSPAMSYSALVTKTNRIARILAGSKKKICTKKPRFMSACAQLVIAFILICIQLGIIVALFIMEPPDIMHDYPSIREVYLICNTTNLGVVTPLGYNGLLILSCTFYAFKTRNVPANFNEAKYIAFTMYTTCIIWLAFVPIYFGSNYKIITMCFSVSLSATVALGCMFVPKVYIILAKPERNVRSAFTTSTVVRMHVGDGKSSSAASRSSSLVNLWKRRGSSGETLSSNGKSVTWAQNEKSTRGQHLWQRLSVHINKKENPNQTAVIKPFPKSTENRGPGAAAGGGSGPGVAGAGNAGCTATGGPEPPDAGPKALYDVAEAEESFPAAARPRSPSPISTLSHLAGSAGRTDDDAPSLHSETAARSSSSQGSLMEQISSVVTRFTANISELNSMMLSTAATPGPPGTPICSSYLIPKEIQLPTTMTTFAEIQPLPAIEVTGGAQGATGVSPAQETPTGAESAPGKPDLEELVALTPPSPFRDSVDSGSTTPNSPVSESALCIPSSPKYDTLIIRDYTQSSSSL

One may read the EC50 as the midpoint of the concentration-response curve. Broadly, the melting point is the temperature, or range, at which the solid turns liquid. For the compound `O=C(c1ccc(F)nc1)N1CCC[C@H](c2noc(-c3ccc[nH]3)n2)C1` [Example 21, (6-Fluoro-pyridin-3-yl)-{(S)-3-[5-(1H-pyrrol-2-yl)-[1,2,4]oxadiazol-3-yl]-piperidin-1-yl}-methanone], the melting point was 147 °C. Further, the EC50 in series [1] was under 1000 nM.

In turn, `Cc1c[nH]c(-c2noc([C@H]3CCCN(C(=O)c4ccc(F)cc4)C3)n2)c1` [Example 31, (4-Fluoro-phenyl)-{(S)-3-[3-(4-methyl-1H-pyrrol-2-yl)-[1,2,4]oxadiazol-5-yl]-piperidin-1-yl}-methanone] yielded a melting point of 188 to 190 °C. In series [1], the EC50 is under 1000 nM.

For the compound `Cc1oncc1C(=O)N1CCC[C@H](c2nc(-c3cc4ccccc4[nH]3)no2)C1` [Example 19, {(S)-3-[3-(1H-Indol-2-yl)-[1,2,4]oxadiazol-5-yl]-piperidin-1-yl}-(5-methyl-isoxazol-4-yl)-methanone], the melting point fell in the range of 163 to 164 °C. In addition, the EC50 in series [1] is 1000 to 10000 nM.

The compound `O=C(c1ccc(F)c(F)c1)N1CCCC(c2noc(-c3ncc[nH]3)n2)C1` (stereo not drawn) [Example 18, (3,4-Difluoro-phenyl)-{3-[5-(1H-imidazol-2-yl)-[1,2,4]oxadiazol-3-yl]-piperidin-1-yl}-methanone] yielded a melting point of 148.5 to 148.9 °C. Besides, the EC50 in series [1] was in the range of 1000 to 10000 nM.

`O=C(c1ccc(F)c(F)c1)N1CCC[C@H](c2nc(-c3ncc[nH]3)no2)C1` [Example 25, (3,4-Difluoro-phenyl)-{(S)-3-[3-(1H-imidazol-2-yl)-[1,2,4]oxadiazol-5-yl]-piperidin-1-yl}-methanone] yielded a melting point of 156 to 157 °C. The EC50 in series [1] lay within 1000 to 10000 nM.

Take `Cc1oncc1C(=O)N1CCCC(c2noc(-c3cc4ccccc4[nH]3)n2)C1` (stereo not drawn) [Example 26, {3-[5-(1H-Indol-2-yl)-[1,2,4]oxadiazol-3-yl]-piperidin-1-yl}-(5-methyl-isoxazol-4-yl)-methanone]: the melting point was 175.6 to 177.2 °C. The EC50 in series [1] was 1000 to 10000 nM.

For orientation: IC50 means the concentration needed to halve the response being measured. Low readings indicate greater potency in that assay, high ones weaker potency in that assay. Compound `O=C(c1ccc(F)cc1)N1CCC[C@H](c2nc(-c3ccc[nH]3)no2)C1` [Example 1, (4-Fluoro-phenyl)-{(S)-3-[3-(1H-pyrrol-2-yl)-[1,2,4]oxadiazol-5-yl]-piperidin-1-yl}-methanone] returned a melting point of 130 to 135 °C. For the same compound, the EC50 in series [1] was under 1000 nM. The IC50 in series [2] is under 30000 nM.

In turn, `Cc1cc(F)ccc1C(=O)N1CCCC(c2noc(-c3ccc[nH]3)n2)C1` (stereo not drawn) [Example 9, (4-Fluoro-2-methyl-phenyl)-{3-[5-(1H-pyrrol-2-yl)-[1,2,4]oxadiazol-3-yl]-piperidin-1-yl}-methanone] showed a melting point of 203 °C. Further, the EC50 in series [1] is 1000 to 10000 nM.

In turn, `O=C(c1ccc(F)nc1)N1CCCC(c2noc(-c3ccc[nH]3)n2)C1` (stereo not drawn) [Example 8, (6-Fluoro-pyridin-3-yl)-{3-[5-(1H-pyrrol-2-yl)-[1,2,4]oxadiazol-3-yl]-piperidin-1-yl}-methanone] returned a melting point of 143 °C. Further, the EC50 in series [1] was 1000 to 10000 nM.

As to `Fc1cccc(/C=N/N=C/c2cccc(F)c2)c1` [DFB, reference compound], in series [1], the “activation of rat mGluR5 receptors” value was “activating”. Further, in series [3], the “activity in rat cortical astrocytes culture in the absence of added glutamate” value (from here on “activity”) is “inactive”.

In turn, `Cc1oncc1C(=O)N1CCC[C@H](c2nc(-c3ccc[nH]3)no2)C1` [Example 20, (5-Methyl-isoxazol-4-yl)-{(S)-3-[3-(1H-pyrrol-2-yl)-[1,2,4]oxadiazol-5-yl]-piperidin-1-yl}-methanone] showed a melting point of 125 to 127 °C. The EC50 in series [1] is over 10000 nM.

Compound `O=C(c1ccc(F)cc1)N1CCC[C@H](c2noc(-c3cc([N+](=O)[O-])c[nH]3)n2)C1` [Example 36, (4-Fluoro-phenyl)-{(S)-3-[5-(4-nitro-1H-pyrrol-2-yl)-[1,2,4]oxadiazol-3-yl]-piperidin-1-yl}-methanone] came in with a melting point of 157 to 158 °C. For the same compound, the EC50 in series [1] was under 1000 nM.

In the case of `O=C(c1ccc(F)c(F)c1)N1CCC[C@H](c2noc(-c3ccc[nH]3)n2)C1` [Example 10, (3,4-Difluoro-phenyl)-{(S)-3-[5-(1H-pyrrol-2-yl)-[1,2,4]oxadiazol-3-yl]-piperidin-1-yl}-methanone], the melting point came out at 168 °C. For the same compound, the concentration for a half-maximal effect (EC50) in series [1] was under 1000 nM.

Compound `O=C(c1ccc(F)c(F)c1)N1CCC[C@H](c2nc(-c3cc(F)c[nH]3)no2)C1` [Example 51, (3,4-Difluoro-phenyl)-{(S)-3-[3-(4-fluoro-1H-pyrrol-2-yl)-[1,2,4]oxadiazol-5-yl]-piperidin-1-yl}-methanone] had a melting point of 147.5 to 148.2 °C. For the same compound, in series [1], the EC50 was under 1000 nM.

As to `N#Cc1cccc(C(=O)Nc2cc(-c3ccccc3)nn2-c2ccccc2)c1` [CDPPB, reference compound], in series [1], the “activation of rat mGluR5 receptors” value is listed as “activating”. Moreover, the “activity” value in series [3] was “inactive”.

`O=C(c1ccc(F)c(F)c1)N1CCC[C@H](c2nc(-c3cc4ccccc4[nH]3)no2)C1` [Example 15, (3,4-Difluoro-phenyl)-{(S)-3-[3-(1H-indol-2-yl)-[1,2,4]oxadiazol-5-yl]-piperidin-1-yl}-methanone] registered a melting point of 93 to 94 °C. Also, in series [1], the EC50 was over 10000 nM.

As for `Cc1c[nH]c(-c2nc([C@H]3CCCN(C(=O)c4ccc(F)cc4)C3)no2)c1` [Example 27, (4-Fluoro-phenyl)-{(S)-3-[5-(4-methyl-1H-pyrrol-2-yl)-[1,2,4]oxadiazol-3-yl]-piperidin-1-yl}-methanone], the melting point was 183 °C. Besides, the EC50 in series [1] was under 1000 nM.

In turn, `O=C(c1ccc(F)cc1)N1CCCC(c2noc(-c3cc4ccccc4[nH]3)n2)C1` (stereo not drawn) [Example 11, (4-Fluoro-phenyl)-{3-[5-(1H-indol-2-yl)-[1,2,4]oxadiazol-3-yl]-piperidin-1-yl}-methanone] came in with a melting point of 199 to 201 °C. Besides, in series [1], the EC50 lay in the range of 1000 to 10000 nM.

As to `O=C(Nc1ccc(Cl)cc1CN1C(=O)c2ccccc2C1=O)c1ccccc1O` [CPPHA, reference compound], the “activation of rat mGluR5 receptors” value in series [1] is on record as “activating”. The “activity” value in series [3] was “inactive”.
